The record followed here is patent publication US9353104B2, “Substituted pyridizinone derivatives as PDE10 inhibitors” (priority 2013, dated 2016).

As a reminder, the pKi is −log10 of the Ki, conventionally taken in molar units.

pKi: −log10 of the molar value.

In this test the target is human PDE10A2 (Homo sapiens (Human), UniProt Q9Y233). Put plainly: PDE10 fluorescence polarization (IMAP FP) inhibition assay. The test is classed as biochemical. The following applies: human PDE10A2 lysate, FAM-labeled cAMP 50 nM, room temperature; read-out: PDE10A Ki. Here is the method: The activity of the compounds in accordance with the present invention as PDE10 inhibitors may be readily determined without undue experimentation using a fluorescence polarization (FP) methodology that is well known in the art (Huang, W., et al., J. Biomol Screen, 2002, 7: 215). […] In a typical experiment the PDE10 inhibitory activity of the compounds of the present invention was determined in accordance with the following experimental method. PDE10A2 was amplified from human fetal brain cDNA (Clontech, Mountain View, Calif.) using a forward primer corresponding to nucleotides 56-77 of human PDE10A2 (Accession No. AF127480, Genbank Identifier 4894716), containing a Kozak consensus sequence, and a reverse primer corresponding to nucleotides 2406-2413 of human PDE10A2 (Accession No. AF127480, Genbank Identifier 4894716). Amplification with Easy-A polymerase (Stratagene, La Jolla, Calif.) was 95° C. for 2 minutes followed by thirty three cycles of 95° C. for 40 seconds, 55° C. for 30 seconds, and 72° C. for 2 minutes 48 seconds. Final extension was 72° C. for 7 minutes. The PCR product was TA cloned into pcDNA3.2-TOPO (Invitrogen, Carlsbad, Calif.) according to standard protocol. AD293 cells with 70-80% confluency were transiently transfected with human PDE10A2/pcDNA3.2-TOPO using Lipofectamine 2000 according to manufacturer specifications (Invitrogen, Carlsbad, Calif.). Cells were harvested 48 hours post-transfection and lysed by sonication (setting 3, 10×5 sec pulses) in a buffer containing 20 mM HEPES, 1 mM EDTA and protease inhibitor cocktail (Roche). Lysate was collected by centrifugation at 75,000×g for 20 minutes. Supernatant containing the cytoplasmic fraction was used for evaluation of PDE10A2 activity. The fluorescence polarization assay for cyclic nucleotide phosphodiesterases was performed using an IMAP® FP kit supplied by Molecular Devices, Sunnyvale, Calif. (product #R8139). IMAP® technology has been applied previously to phosphodiesterase assays (Huang, W., et al., J. Biomol Screen, 2002, 7: 215). Assays were performed at room temperature in 384-well microtiter plates with an incubation volume of 20.2 μL. Solutions of test compounds were prepared in DMSO and serially diluted with DMSO to yield 8 μL of each of 10 solutions differing by 3-fold in concentration, at 32 serial dilutions per plate. 100% inhibition is determined using a known PDE10 inhibitor, which can be any compound that is present at 5,000 times its Ki value in the assay described as follows, such as papaverine (see Siuciak, et al. Neuropharmacology (2006) 51:386-396; Becker, et al. Behav Brain Res (2008) 186(2):155-60; Threlfell, et al., J Pharmacol Exp Ther (2009) 328(3):785-795), 2-{4-[pyridin-4-yl-1-(2,2,2-trifluoroethyl)-1H-pyrazol-3-yl]phenoxymethyl}quinoline succinic acid or 2-[4-(1-methyl-4-pyridin-4-yl-1H-pyrazol-3-yl)-phenoxymethyl]quinoline succinic acid (see Schmidt, et al. J Pharmacol Exp Ther (2008) 325:681-690; Threlfell, et al., J Pharmacol Exp Ther (2009) 328(3): 785-795). 0% of inhibition is determined by using DMSO (1% final concentrations).
Sequence of human PDE10A2 (Q9Y233 267-1055): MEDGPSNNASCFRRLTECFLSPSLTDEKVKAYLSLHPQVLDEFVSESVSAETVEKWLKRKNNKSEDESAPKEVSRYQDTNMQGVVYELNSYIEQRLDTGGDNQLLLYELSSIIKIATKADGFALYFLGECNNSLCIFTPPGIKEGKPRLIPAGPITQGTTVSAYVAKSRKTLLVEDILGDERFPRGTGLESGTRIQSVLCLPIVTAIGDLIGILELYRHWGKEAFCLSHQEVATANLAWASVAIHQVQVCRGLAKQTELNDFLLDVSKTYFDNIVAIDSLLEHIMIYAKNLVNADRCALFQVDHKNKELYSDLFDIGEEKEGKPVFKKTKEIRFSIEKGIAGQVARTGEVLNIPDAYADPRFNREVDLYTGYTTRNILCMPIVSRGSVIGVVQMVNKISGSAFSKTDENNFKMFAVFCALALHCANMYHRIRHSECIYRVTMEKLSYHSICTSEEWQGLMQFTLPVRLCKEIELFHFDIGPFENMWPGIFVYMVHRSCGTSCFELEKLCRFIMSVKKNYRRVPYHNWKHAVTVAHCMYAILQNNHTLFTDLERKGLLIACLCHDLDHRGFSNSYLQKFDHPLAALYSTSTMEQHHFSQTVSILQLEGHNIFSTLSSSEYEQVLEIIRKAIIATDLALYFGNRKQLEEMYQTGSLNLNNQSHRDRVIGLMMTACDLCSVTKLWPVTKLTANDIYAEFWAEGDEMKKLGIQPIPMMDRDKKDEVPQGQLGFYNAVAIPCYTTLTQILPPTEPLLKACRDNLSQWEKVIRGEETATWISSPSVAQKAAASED
A Labcyte Echo 555 (Labcyte, Sunnyvale, Calif.) is used to dispense 200 nL from each well of the titration plate to the 384 well assay plate. A solution of enzyme (1/1600 dilution from aliquots; sufficient to produce 20% substrate conversion) and a separate solution of FAM-labeled cAMP PDE from Molecular Devices (product #R7506), at a final concentration of 50 nM are made in the assay buffer (10 mM Tris HCl, pH 7.2, 10 mM MgCl2, 0.05% NaN3 0.01% Tween-20, and 1 mM DTT). The enzyme and the substrate are then added to the assay plates in two consecutive additions of 10 μL, and then shaken to mix. The reaction is allowed to proceed at room temperature for 30 minutes. A binding solution is then made from the kit components, comprised of 80% Solution A, 20% Solution B and binding reagent at a volume of 1/600 the total binding solution.
For orientation: Fluorescence polarisation rises when a labelled molecule tumbles more slowly, as on binding a larger partner.
With `Cc1ccc([C@H]2C[C@@H]2COc2cc(NCc3ccnn3C)c(=O)n(C)n2)nc1` [Example 99, 2-methyl-4-(((1-methyl-1H-pyrazol-5-yl)methyl-)amino)-6-(((1S,2S)-2-(5-methylpyridin-2-yl)cyclo-propyl)methoxy)pyridazin-3(2H)-one], the negative logarithm of the Ki (pKi) was 9.86.
In the case of `Cc1cnc(CNc2cc(OC[C@H]3C[C@@H]3c3ccc(F)cn3)nn(C)c2=O)s1` [Example 32, 6-(((1S,2S)-2-(5-fluoropyridin-2-yl)cyclopropyl)methoxy)-2-methyl-4-((5-methylthiazol-2-yl)methylamino)pyridazin-3(2H)-one] it was 9.75; in that of `CCc1cc(CNc2cc(OC[C@H]3C[C@@H]3c3ccc(C)cn3)nn(C)c2=O)n(C)n1` [Example 138, 4-((3-ethyl-1-methyl-1H-pyrazol-5-yl)methylamino)-2-methyl-6-(((1S,2S)-2-(5-methylpyridin-2-yl)cyclopropyl)methoxy) pyridazin-3(2H)-one], 10.57.
On to `COc1ccc([C@H]2C[C@@H]2COc2cc(NCc3cc(C)on3)c(=O)n(C)n2)nc1` [Example 87, 6-(((1S,2S)-2-(5-methoxypyridin-2-yl)cyclopropyl)methoxy)-2-methyl-4-(((5-methylisoxazol-3-yl)methyl)amino)pyridazin-3(2H)-one], for which the pKi was 11.00.
For `Cc1ncc(CNc2cc(OC[C@H]3C[C@@H]3c3ccc(Cl)cn3)nn(C)c2=O)s1` [Example 34, 6-(((1S,2S)-2-(5-chloropyridin-2-yl)cyclopropyl)methoxy)-2-methyl-4-((2-methylthiazol-5-yl)methylamino)pyridazin-3(2H)-one], the pKi is 10.19.
Under `COc1ccc([C@H]2C[C@@H]2COc2cc(NC(=O)c3cnn(C)c3Cl)c(=O)n(C)n2)nc1` [Example 95, 5-chloro-N-(6-(((1S,2S)-2-(5-methoxypyridin-2-yl)-cyclopropyl)methoxy)-2-methyl-3-oxo-2,3-dihydro-pyridazin-4-yl)-1-methyl-1Hpyrazole-4carboxamide] stands 7.12; under `COc1ccc([C@H]2C[C@@H]2COc2cc(NCc3ccc(F)c(C)n3)c(=O)n(C)n2)nc1` [Example 74, 4-(((5-fluoro-6-methyl-pyridin2yl)methyl)amino)-6-(((1S,2S)-2-(5-methoxy-pyridin-2-yl)cyclopropyl-)-methoxy)-2-methyl-pyridazin-3(2H)-one], 8.28; under `Cc1cc(C(=O)Nc2cc(OC[C@H]3C[C@@H]3c3ccn(C)n3)nn(C)c2=O)n(C)n1` [Example 103, 1,3-dimethyl-N-(2-methyl-6-(((1S,2S)-2-(1-methyl-1H-pyrazol-3-yl)cyclopropyl)methoxy)-3-oxo-2,3-dihydropyridazin-4-yl)-1H-pyrazole-5-carboxamide], 7.12.
Under `Cc1cccc([C@H]2C[C@@H]2COc2cc(NCc3nnc(C)s3)c(=O)n(C)n2)n1` [Example 115, 2-methyl-4-((5-methyl-1,3,4-thiadiazol-2-yl)methylamino)-6-(((1S,2S)-2-(6-methylpyridin-2-yl)cyclopropyl)methoxy) pyridazin-3(2H)-one] stands 10.48; under “6-(((1S,2S)-2-(5- methoxypyridin-2- yl)cyclopropyl)methoxy)- 2-methyl-4-(((2-methyl- thiazol-4- yl)methyl)amino-)- pyridazin-3(2H)-one [Example 49]”, 7.78.
Under `COc1ccc(CNc2cc(OC[C@H]3C[C@@H]3c3ccn(C)n3)nn(C)c2=O)cc1` [Example 17, 4-(4-methoxybenzylamino)-2-methyl-6-(((1S,2S)-2-(1-methyl-1H-pyrazol-3-yl)cyclopropyl)methoxy)-pyridazin-3(2H)-one] stands 9.30; under `Cc1cc(CNc2cc(OC[C@H]3C[C@@H]3c3ccc(F)cn3)nn(C)c2=O)n(C)n1` [Example 18], 10.00.
`COc1ccc([C@H]2C[C@@H]2COc2cc(NCc3nnc(C)s3)c(=O)n(C)n2)nc1` [Example 4, 6-(((1S,2S)-2-(5-methoxy-pyridin-2-yl)cyclopropyl-)-methoxy)-2-methyl-4-((5-methyl-1,3,4-thiadiazol-2-yl)methylamino)pyridazin-3(2H)-one]: the negative logarithm of the Ki (pKi) was 10.82.
Under `COc1ccc([C@H]2C[C@@H]2COc2cc(NCc3ccc(C)c(C)n3)c(=O)n(C)n2)nc1` [Example 69, 4-(((5,6-dimethylpyridin-2-yl)methyl)amino)-6-(((1S,2S)-2-(5-methoxy-pyridin-2-yl)cyclopropyl-)-methoxy)-2-methyl-pyridazin-3(2H)-one] stands 9.39; under `Cc1ccc([C@H]2C[C@@H]2COc2cc(NCc3c(C)nn(C)c3Cl)c(=O)n(C)n2)nc1` [Example 38, 4-((5-chloro-1,3-dimethyl-1H-pyrazol-4-yl)methyl-amino)-2-methyl-6-(((1S,- 2S)-2-(5-methyl-pyridin-2-yl)cyclopropyl)methoxy)-pyridazin-3(2H)-one], 8.82; under `COc1ccc([C@H]2C[C@@H]2COc2cc(NCc3nc(C)ccc3C)c(=O)n(C)n2)nc1` [Example 71, 4-(((3,6-dimethylpyridin-2-yl)methyl)amino)-6-(((1S,2S)-2-(5-methoxy-pyridin-2-yl)cyclopropyl-)-methoxy)-2-methylpyridazin-3(2H)one], 7.31.
For `Cc1ccc([C@H]2C[C@@H]2COc2cc(NCc3ccc(C)nc3C)c(=O)n(C)n2)nc1` [Example 52, 4-(((2,6-dimethylpyridin-3-yl)methyl)amino)-2-methyl-6-(((1S,2S)-2-(5-methylpyridin-2-yl)cyclopropyl)methoxy)-pyridazin-3(2H)-one], the pKi is 11.15.
In the case of `Cc1cc(CNc2cc(OC[C@H]3C[C@@H]3c3ccn(C)n3)nn(C)c2=O)nn1C` [Example 129, 4-((1,5-dimethyl-1H-pyrazol-3-yl)methylamino)-2-methyl-6-(((1S,2S)-2-(1-methyl-1H-pyrazol-3-yl)cyclopropyl)methoxy) pyridazin-3(2H)-one] it was 8.44; in that of `COc1ccc([C@H]2C[C@@H]2COc2cc(NCc3ccc(C)nc3)c(=O)n(C)n2)nc1` [Example 64, 6-(((1S,2S)-2-(5-methoxy-pyridin-2-yl)cyclopropyl-)-methoxy)-2-methyl-4-(((6-methylpyridin-3-yl)methyl)amino)pyridazin-3(2H)-one], 10.60; in that of `Cn1ccc([C@H]2C[C@@H]2COc2cc(NCc3ccnn3C)c(=O)n(C)n2)n1` [Example 98, 2-methyl-6-(((1S,2S)-2-(1-methyl-1H-pyrazol-3-yl)cyclopropyl)methoxy)-4-(((1-methyl-1H-pyrazol-5-yl)methyl)amino)-pyridazin-3(2H)-one], 8.82.
Under `COc1ccc(CNc2cc(OC[C@H]3C[C@@H]3c3ccc(OC)cn3)nn(C)c2=O)cc1` [Example 133, 4-(4-methoxybenzyl-amino)-6-(((1S,2S)-2-(5-methoxypyridin-2-yl)-cyclopropyl)methoxy)-2-methylpyridazin-3(2H)one] stands 10.68; under `Cc1cc(CNc2cc(OC[C@H]3C[C@@H]3c3ccc4c(n3)CCC4)nn(C)c2=O)n(C)n1` [Example 121, 6-(((1S,2S)-2-(6,7-dihydro-5H-cyclopenta-[b]pyridin-2-yl)cyclop-ropyl)methoxy)-4-((1,3-dimethyl-1H-pyrazol-5-yl)methylamino)-2-methylpyridazin-3(2H)one], 12.00.
